This is an account of results in publication PMC8073686, “Characterization of Subtype Selective Cannabinoid CB2 Receptor Agonists as Potential Anti-Inflammatory Agents” (Pharmaceuticals, 2021).

Assay [1] addresses T1, CB1 receptor (Homo sapiens, UniProt P21554).
T1 construct: expressed in transfected cells; host or cells: HEK293T cells (called 'HEK293 cells' in Results), calcium phosphate transfection, membrane preparation
Nature of the assay: Competitive [3H]CP55,940 radioligand binding, membrane from CB1 expressing HEK293 cells. As to conditions: for Ki CB1 (CP55,940): competition with [3H]CP55,940, N.B. = no specific binding detected up to 10 μM of test compounds; for CB1 receptor binding: not bound up to: test compound 1 nM to 10 μM. An excerpt: To evaluate binding affinity of ABK5 analogs that have a difference in the position of substituents in the N-phenyl ring (Figure 1), we performed competitive radiolabeled ligand binding assays using cell membrane from HEK293T cells transfected with human CB2 receptors. […] ABK5-1, ABK5-2, and ABK5-6 dose-dependently competed with [^3H]CP55,940 and decreased the specific binding of the radiolabeled agonist, which reflects the binding of test compounds to CB2. […] Therefore, ABK5-5 was not considered for further evaluation in this study. […] We also examined CB2 selectivity (versus CB1) of the three compounds by performing similar binding assays using membrane from CB1 expressing HEK293 cells instead of CB2 expressing cells. […] Therefore, ABK5-1 and 5-2 maintained the CB2 subtype selectivity of ABK5.
In the experiment, 1 × 10^6 HEK293T cells were seeded in a 10-cm cell culture dish and cultured for 24 h. Cells were transfected with CB1 or CB2 using the calcium phosphate method. Approximately one day after transfection, cells were harvested and centrifuged at 4 °C for 5 min at 500× g. The pellet was washed with phosphate buffered saline (PBS) twice and resuspended in PBS containing 1% protease-inhibitor cocktail (Sigma-Aldrich, St. Louis, MO, USA) consisting of 104 mM 4-(2-aminoethyl) benzene sulfonyl fluoride hydrochloride (AEBSF), 80 μM apronitin, 4 mM bestatin, 1.64 mM E-64, 2 mM leupeptin, 1.5 mM pepstatin A. Then the cells were subjected to nitrogen cavitation under 750 psi for 5 min using a Parr cell disruption bomb. The lysate was centrifuged at 500× g for 10 min at 4 °C and the supernatant was spun at 116,000× g for 45 min at 4 °C. The pellet, consisting of the cell membrane expressing CB1 or CB2, was resuspended in TME buffer solution (25 mM Tris-HCl, 5 mM MgCl2, and 1 mM EDTA, pH 7.4) with 7% (w/v) sucrose/TME buffer. The concentration of the membrane protein was determined by the Bradford assay (Bradford, 1976).
Membrane protein was mixed with 1 nM to 10 μM of the test compounds and 1 nM [^3H]CP55,940 (164.9 Ci/mmol; PerkinElmer life Sciences, Waltham, MA, USA), and TME buffer supplemented with 0.2% BSA was used to bring the total volume to 200 μL. [^3H]CP55,940 acts as tracer and agonists that bind the target receptor compete with [^3H]CP55,940. Samples were incubated for 1 h at 30 °C. Ten μM unlabeled CP55,940 was used to determine non-specific binding. Reactions were stopped by adding 5% BSA/TME buffer (w/v) and samples were filtered through a Brandel cell harvester using Whatman GF/C filter paper. Ultima Gold XR liquid scintillation cocktail (PerkinElmer Life Sciences, Waltham, MA, USA) was then added and vortexed. A Beckman Coulter 6500 liquid scintillation counter was used to measure the radioactivity of the samples.
Results are presented as the mean ± standard deviation (S.D.). The ligand binding assays and the GTPγS binding assays were both carried out in duplicate for three independent experiments. The Ki values in the ligand binding assay were calculated using the Prism software (GraphPad Software Inc., San Diego, CA, USA), using IC50 values obtained from non-linear regression fitted to the one-site binding model. The Cheng-Prusoff equation [48], which is used for calculation of Ki value is shown below. (1) Ki=IC50/1+L/Kd

Assay [2] relates to Jurkat cells. Briefly: CXCL12-mediated Jurkat cell transwell migration assay. The following applies: 2 h pretreatment, 2 h migration. Format: cell-based, human. How it is done:
During inflammation, immune cells are attracted by chemoattractants and migrate to the site of inflammation. Therefore, an inhibitory effect on chemotaxis of immune cells is also a sign of anti-inflammatory effect. We evaluated ABK5-1 and ABK5-2 to determine if these compounds can inhibit CXCL12-mediated Jurkat cell migration. Jurkat cells were incubated with various concentrations of ABK5-1 or 5-2 and loaded on the transwells and allowed to migrate through the transwells to the bottom chamber, which include CXCL12. The cell number in the bottom chamber was determined after 2 h of loading. ABK5-1 inhibited Jurkat cell migration at 10 and 25 μM (Figure 5A). […] Again, to verify these observations were not due to cytotoxicity of test compounds, cell viability was also monitored by incubating cells with compound and CXCL12 without the transwells.
Figure 5 Effect of ABK5-1 and ABK5-2 on CXCL12-mediated Jurkat cell migration. Transwell migration of Jurkat cells treated with (A,B) ABK5-1 or (C,D) ABK5-2. Frames (A,C): Cells were treated with vehicle or various concentrations of test compounds for 2 h and then allowed to migrate through transwells for 2 h. Cell numbers migrated to the lower chamber are indicated as relative to vehicle (DMSO) alone. Results are indicated as the mean ± S.D. of three independent assays performed in triplicate for each concentration. Viability of cells treated with (B) ABK5-1 or (D) ABK5-2 after the migration assay was also examined. Cells were treated exactly the same but without transwells and viability was determined. Results are indicated as the mean ± S.D. of three independent assays performed for each concentration. One-way ANOVA plus Dunnett’s post-hoc test were used for both migration and viability assays. **** p < 0.0001 (versus vehicle control group).
The migration assay was performed as described previously. Briefly, a Transwell Multiple Well Plate with permeable polycarbonate membrane inserts ([…], 24-well, Corning, Corning, NY, USA) were used in migration assays. Jurkat cells were seeded at 2.5 × 10^6 cells/mL in RPMI medium containing 2.5% FBS and treated with DMSO or test compound for 2 h. Then a sample of cells were transferred to the top well. RPMI medium containing 0 to 1000 ng/mL CXCL12 and the appropriate concentration of test compound was loaded to the bottom chamber. Cells were allowed to migrate for 2 h and cells migrated from the top well to the bottom chamber were counted or measured by CCK-8 (Dojindo Molecular Technologies, Inc., Rockville, MD, USA) following the manufacturer instructions. For evaluation of cell viability, the same procedure used for the migration assay was performed without the transwells and the viable cells were counted or measured by CCK-8.

T1 sequence (P21554 whole entry): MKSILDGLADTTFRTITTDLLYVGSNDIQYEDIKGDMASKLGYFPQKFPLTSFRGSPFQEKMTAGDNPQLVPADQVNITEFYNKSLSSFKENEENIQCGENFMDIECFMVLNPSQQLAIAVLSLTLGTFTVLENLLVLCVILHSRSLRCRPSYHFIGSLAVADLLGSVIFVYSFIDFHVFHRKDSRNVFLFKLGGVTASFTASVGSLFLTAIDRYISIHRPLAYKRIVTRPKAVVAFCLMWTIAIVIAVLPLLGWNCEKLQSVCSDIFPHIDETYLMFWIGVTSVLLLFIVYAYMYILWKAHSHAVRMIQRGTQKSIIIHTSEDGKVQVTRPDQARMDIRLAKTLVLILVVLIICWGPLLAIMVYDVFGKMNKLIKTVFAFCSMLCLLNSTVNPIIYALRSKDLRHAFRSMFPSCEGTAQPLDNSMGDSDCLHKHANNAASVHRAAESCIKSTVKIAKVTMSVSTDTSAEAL

On to `CCOC(=O)c1ccccc1NC(=O)CN(c1c(C)cccc1C)S(=O)(=O)c1ccccc1` [ABK5-2], for which, in assay [1], the “Ki CB1 (CP55,940)” value is “N.B. ^c” and the “CB1 receptor binding: not bound up to” value was greater than 10 µM. Also, the “decrease of cell migration” value in assay [2] (10 μM) is reported as 32%. The “decrease of cell migration” value in assay [2] (25 μM) is 32%.
In the case of `CCOC(=O)c1ccccc1NC(=O)CN(c1ccc(C)cc1C)S(=O)(=O)c1ccccc1` [ABK5-1], the “Ki CB1 (CP55,940)” value in assay [1] was “N.B. ^c”. The “CB1 receptor binding: not bound up to” value in assay [1] is greater than 10 µM. In addition, the “decrease of cell migration” value in assay [2] (10 μM) is “about 35%”; in assay [2] (25 μM) it was roughly 43%.
